Read-outs that look alike come from different tables or passages of the source.
What was measured:
Type in all cases: in vivo, mice (C57BL/6)
[1] = test system: diabetic nephrosis animal models; test: Blood indoxyl sulfate by LC MS/MS; conditions: after observation period, fasted
Description: (§1) STZ (Sigma-aldrich, S0130, 40 mg/kg b.w., in 0.1 M citrate buffer pH 4.5) was intraperitoneally administered to 9-week-old male mice (C57BL/6) once/1 day for 5 days to perform a first disease induction. After 7 weeks of the first induction, a second induction was performed using the same method as the first induction. For 5 days of an STZ administration period for the first induction, 10% sucrose was administered as drinking water. In addition, after 14 days of the second administration, blood glucose levels were confirmed to confirm the induction rate, and the induced animals were separated into groups. Experimental substances (R)-4-{(R)-1-[7-(3,4,5-trimethoxy-phenyl)-[1,6] naphthyridin-5-yloxy]-ethyl}pyrrolidin-2-one (BI-1002494) and cromolyn (OC-101) were administered orally into the stomach at 10 mL/kg using an administration syringe (sonde) before 16:00 daily for 12 weeks at a frequency of 7 days/week at doses shown in Table 1 below, and dexamethasone was orally administered as a positive control substance.
(§2) After the observation period for mice of each group in Example 1 was terminated, all surviving animals were fasted in the same manner as when measuring blood glucose levels, and then anesthetized by inhaling isoflurane, and blood was collected from the abdominal vena cava through laparotomy. After the blood collection was completed, the veins and arteries were cut under anesthesia and exsanguinated. The collected blood was left at room temperature for 30 minutes or more and then centrifuged at 3,000 rpm for 20 minutes. Thereafter, glucose, Blood urea nitrogen (BUN), and creatinine were analyzed using an automated blood biochemistry analyzer (Hitachi 3100, Hitachi Co. Ltd., Japan). Indoxyl sulfate (a substance that was mainly produced in the intestines to cause renal injury, and a substance that caused end-stage renal failure by advancing renal function damage in patients with renal failure during hemodialysis) was analyzed using LC MS/MS. In addition, blood insulin was analyzed according to a method represented by a commercial Mouse Insulin ELISA KIT (#AKRIN-011T, Sibayagi Co. Ltd., Japan).

[2] = test system: diabetic nephrosis animal models; test: Histopathological change (H&E) in liver, kidney, pancreas; conditions: for Kidney: Medullar apoptosis / Kidney: Medullar mineralization / Kidney: NHL / Kidney: bowman's capsule hyperplasia / Kidney: pappillary mineralization / Liver: Apoptosis / Liver: Cytoplasmic glycogen / Liver: Eosinophlic focus of cellular alteration / Liver: Mononuclear cell infiltrate / Liver: NHL / Pancrease: Apoptosis / Pancrease: NHL / Pancrease: islet degeneration / Pancrease: islet hypertrophy / Pancrease: islet, mononuclear cell infillitrate: count in group of 10 animals
Description: as §1
At the end of the observation period, the mice in each group of Example 1 were confirmed to be dead, and the liver, kidney, and pancreas were extracted and fixed with 10% neutral buffered formalin (NBF) in at least 20 times the tissue volume. The fixed tissue was sectioned to a thickness of approximately 4 mm and then produced into a paraffin block through general tissue processing and embedding processes. Thereafter, the tissue was sectioned to a thickness of 4 μm using a rotary microtome, and then H&E staining was performed, and histopathological changes were observed.

[3] = test system: diabetic nephrosis animal models; test: Blood insulin (Mouse Insulin ELISA KIT) and HOMA-IR; conditions: for HOMA-IR, Mean / Insulin, Mean: after observation period, fasted
Description: as §1, §2

[4] = test system: diabetic nephrosis animal models; conditions: for CRE, Mean / GLU, Mean / T-CHO, Mean: after observation period, fasted
Description: as §1, §2

[5] = administered group (12.5, 25, 50 mg/kg)
[6] = after induction of diabetic renal diseases

## COc1cc(-c2cc3ncccc3c(O[C@H](C)[C@H]3CNC(=O)C3)n2)cc(OC)c1OC [BI-1002494, (R)-4-{(R)-1-[7-(3,4,5-trimethoxy-phenyl)-[1,6]naphthyridin-5-yloxy]-ethyl}pyrrolidin-2-one]
[1]; 12.5 mg/kg/day oral
  Indoxyl sulfate, Mean: 2.2 µg/mL
[1]; 25 mg/kg/day oral
  Indoxyl sulfate, Mean: 2.2 µg/mL
[1]; 50 mg/kg/day oral
  Indoxyl sulfate, Mean: 1.9 µg/mL
[2]; G4, 12.5 mg/kg oral
  Kidney: Medullar apoptosis: 3
  Kidney: Medullar mineralization: 0
  Kidney: NHL: 7
  Kidney: bowman's capsule hyperplasia: 0
  Kidney: pappillary mineralization: 0
  Liver: Apoptosis: 2
  Liver: Cytoplasmic glycogen: 1
  Liver: Eosinophlic focus of cellular alteration: 0
  Liver: Mononuclear cell infiltrate: 1
  Liver: NHL: 7
  Pancrease: Apoptosis: 1
  Pancrease: NHL: 5
  Pancrease: islet degeneration: 2
  Pancrease: islet hypertrophy: 1
  Pancrease: islet, mononuclear cell infillitrate: 1
[2]; G5, 25 mg/kg oral
  Kidney: Medullar apoptosis: 2
  Kidney: Medullar mineralization: 1
  Kidney: NHL: 7
  Kidney: bowman's capsule hyperplasia: 0
  Kidney: pappillary mineralization: 0
  Liver: Apoptosis: 3
  Liver: Cytoplasmic glycogen: 0
  Liver: Eosinophlic focus of cellular alteration: 0
  Liver: Mononuclear cell infiltrate: 2
  Liver: NHL: 7
  Pancrease: Apoptosis: 0
  Pancrease: NHL: 8
  Pancrease: islet degeneration: 1
  Pancrease: islet hypertrophy: 1
  Pancrease: islet, mononuclear cell infillitrate: 0
[2]; G6/G7, 50 mg/kg oral
  Kidney: Medullar apoptosis: 1
  Kidney: Medullar mineralization: 2
  Kidney: NHL: 7
  Kidney: bowman's capsule hyperplasia: 0
  Kidney: pappillary mineralization: 0
  Liver: Apoptosis: 2
  Liver: Cytoplasmic glycogen: 0
  Liver: Eosinophlic focus of cellular alteration: 0
  Liver: Mononuclear cell infiltrate: 1
  Liver: NHL: 8
  Pancrease: Apoptosis: 0
  Pancrease: NHL: 7
  Pancrease: islet degeneration: 1
  Pancrease: islet hypertrophy: 2
  Pancrease: islet, mononuclear cell infillitrate: 0
[2]; [5]
  Cytoplasmic glycogen in the liver: reduced in the liver
  Medullar apoptosis in the kidney: reduced in the kidney in a dose-dependent manner
[3]; 12.5 mg/kg/day oral
  HOMA-IR, Mean: 12.4
  Insulin, Mean: 0.7 ng/mL
[3]; 25 mg/kg/day oral
  HOMA-IR, Mean: 8.7^#
  Insulin, Mean: 0.5^# ng/ml
[3]; 50 mg/kg/day oral
  HOMA-IR, Mean: 6.9^#
  Insulin, Mean: 0.5 ng/mL
[3]; 25 and 50 mg/kg administered groups
  HOMA-IR compared with that of the disease control group: statistically significantly reduced
[3]; [6]
  Insulin resistance (HOMA-IR), summary: decreased in a dose-dependent manner
[4]; 12.5 mg/kg/day oral
  CRE, Mean: 0.1 mg/dL
  GLU, Mean: 317.1^# mg/dL
  T-CHO, Mean: 141.6 mg/dL
[4]; 25 mg/kg/day oral
  CRE, Mean: 0.1 mg/dL
  GLU, Mean: 280.0^# mg/dL
  T-CHO, Mean: 125.0 mg/dL
[4]; 50 mg/kg/day oral
  CRE, Mean: 0.1 mg/dL
  GLU, Mean: 213.6^# mg/dL
  T-CHO, Mean: 138.7 mg/dL
[4]; [6]
  Glucose, summary: decreased in a dose-dependent manner
[4]; all administered groups (12.5, 25, 50 mg/kg)
  GLU compared with disease control group: statistically significantly reduced, and a clear dose dependence was observed
